Activity calls are given as the source filed them. The rule behind the calls is not given here.
Assays:
[1] = molecular target: Inhibitor of nuclear factor kappa-B kinase subunit beta (Homo sapiens, UniProt O14920); test: Inhibition of IKKbeta (unknown origin) using GST-SLP-76 as peptide substrate incubated for 10 mins in presence of [gamma-33P]ATP by scintillation counter assay
[2] = molecular target: Tyrosine-protein kinase SYK (Homo sapiens, UniProt P43405); test: Inhibition of Syk (unknown origin) using GST-SLP-76 as peptide substrate incubated for 10 mins in presence of [gamma-33P]ATP by scintillation counter assay
Insulin receptor = Insulin receptor (Homo sapiens, UniProt P06213); test: Inhibition of IR (unknown origin) using GST-SLP-76 as peptide substrate incubated for 10 mins in presence of [gamma-33P]ATP by scintillation counter assay
[3] = molecular target: T1, Tyrosine-protein kinase ITK/TSK (Homo sapiens) (UniProt Q08881); test: Inhibition of Itk in human Jurkat T cells assessed as inhibition of tyrosine phosphorylation with 145 kDa molecular weight at 0.1 to 10 uM incubated for 20 mins in presence of CD3 antibody G19-4 by Western blotting analysis; type: cell-based; details: dose 0.1-10 µM
T1 sequence (whole entry): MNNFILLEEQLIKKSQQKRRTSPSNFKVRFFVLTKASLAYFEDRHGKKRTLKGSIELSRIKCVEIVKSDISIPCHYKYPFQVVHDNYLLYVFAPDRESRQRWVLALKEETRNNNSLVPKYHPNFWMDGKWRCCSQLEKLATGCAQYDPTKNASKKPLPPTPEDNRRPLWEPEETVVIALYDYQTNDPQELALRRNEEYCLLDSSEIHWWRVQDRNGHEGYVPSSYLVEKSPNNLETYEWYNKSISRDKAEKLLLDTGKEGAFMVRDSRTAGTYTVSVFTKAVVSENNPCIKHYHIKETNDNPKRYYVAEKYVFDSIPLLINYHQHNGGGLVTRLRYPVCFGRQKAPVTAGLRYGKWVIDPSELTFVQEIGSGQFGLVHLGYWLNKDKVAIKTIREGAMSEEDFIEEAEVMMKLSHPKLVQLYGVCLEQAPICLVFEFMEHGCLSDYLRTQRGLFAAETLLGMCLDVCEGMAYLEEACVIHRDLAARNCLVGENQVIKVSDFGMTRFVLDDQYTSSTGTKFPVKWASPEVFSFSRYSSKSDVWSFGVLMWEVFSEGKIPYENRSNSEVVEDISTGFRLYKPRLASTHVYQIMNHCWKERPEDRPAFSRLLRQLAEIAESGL

[4] = molecular target: T1, Tyrosine-protein kinase ITK/TSK (Homo sapiens); test: Inhibition of Itk in human PBMC cells assessed as inhibition of IL-2 secretion incubated for 16 hrs in presence of anti-CD3 antibody G19-4 by ELISA analysis; type: cell-based
[5] = molecular target: T2, Tyrosine-protein kinase ZAP-70 (Homo sapiens, UniProt P43403); test: Inhibition of ZAP-70 (unknown origin) using GST-SLP-76 as peptide substrate incubated for 10 mins in presence of [gamma-33P]ATP by scintillation counter assay
T2 sequence (P43403 whole entry): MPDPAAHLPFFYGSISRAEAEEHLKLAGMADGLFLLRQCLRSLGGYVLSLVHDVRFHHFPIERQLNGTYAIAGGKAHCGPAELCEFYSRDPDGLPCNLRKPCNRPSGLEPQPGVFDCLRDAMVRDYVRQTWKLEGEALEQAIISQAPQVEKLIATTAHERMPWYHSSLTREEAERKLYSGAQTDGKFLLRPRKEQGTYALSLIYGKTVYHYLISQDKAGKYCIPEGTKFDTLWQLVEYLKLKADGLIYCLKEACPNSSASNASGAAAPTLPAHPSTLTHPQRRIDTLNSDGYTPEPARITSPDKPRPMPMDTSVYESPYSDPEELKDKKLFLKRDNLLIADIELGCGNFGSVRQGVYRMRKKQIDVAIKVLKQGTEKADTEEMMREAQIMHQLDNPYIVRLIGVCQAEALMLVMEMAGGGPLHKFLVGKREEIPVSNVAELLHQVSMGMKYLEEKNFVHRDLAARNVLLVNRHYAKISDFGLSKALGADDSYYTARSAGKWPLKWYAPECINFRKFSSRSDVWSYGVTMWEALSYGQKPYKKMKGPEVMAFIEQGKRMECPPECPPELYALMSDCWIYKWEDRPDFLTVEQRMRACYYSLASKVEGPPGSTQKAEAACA

[6] = molecular target: Tyrosine-protein kinase Lck (Homo sapiens, UniProt P06239); test: Inhibition of Lck (unknown origin) using GST-SLP-76 as peptide substrate incubated for 10 mins in presence of [gamma-33P]ATP by scintillation counter assay
[7] = molecular target: T1, Tyrosine-protein kinase ITK/TSK (Homo sapiens); test: Inhibition of Itk in EGF-stimulated human A549 cells assessed as reduction in tyrosine phosphorylation at <=10 uM incubated for 20 mins by Western blotting analysis; type: cell-based
[8] = molecular target: Glycogen synthase kinase-3 beta (Homo sapiens, UniProt P49841); test: Inhibition of GSK-3beta (unknown origin) using GST-SLP-76 as peptide substrate incubated for 10 mins in presence of [gamma-33P]ATP by scintillation counter assay
[9] = molecular target: T3, Tyrosine-protein kinase TXK (Homo sapiens, UniProt P42681); test: Inhibition of Txk (unknown origin) using GST-SLP-76 as peptide substrate incubated for 10 mins in presence of [gamma-33P]ATP by scintillation counter assay
T3 sequence (P42681 whole entry): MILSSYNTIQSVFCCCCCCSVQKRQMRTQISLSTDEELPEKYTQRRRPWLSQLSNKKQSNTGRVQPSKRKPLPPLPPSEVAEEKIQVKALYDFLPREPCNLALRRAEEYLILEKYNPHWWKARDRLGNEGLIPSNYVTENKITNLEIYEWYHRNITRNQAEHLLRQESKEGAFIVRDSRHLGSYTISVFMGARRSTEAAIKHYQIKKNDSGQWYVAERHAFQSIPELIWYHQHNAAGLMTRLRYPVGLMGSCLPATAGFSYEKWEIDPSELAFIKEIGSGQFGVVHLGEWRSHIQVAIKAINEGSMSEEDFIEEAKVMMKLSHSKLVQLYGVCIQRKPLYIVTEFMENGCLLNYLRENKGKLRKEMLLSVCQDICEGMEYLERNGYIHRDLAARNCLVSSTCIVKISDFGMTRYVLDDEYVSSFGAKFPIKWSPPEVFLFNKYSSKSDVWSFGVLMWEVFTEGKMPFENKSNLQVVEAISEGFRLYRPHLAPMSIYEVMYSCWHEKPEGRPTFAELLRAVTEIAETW

[10] = molecular target: cAMP-dependent protein kinase (PKA) (Homo sapiens, UniProt P22694+P17612+P22612); test: Inhibition of PKA (unknown origin) using GST-SLP-76 as peptide substrate incubated for 10 mins in presence of [gamma-33P]ATP by scintillation counter assay; type: protein assay
[11] = molecular target: T1, Tyrosine-protein kinase ITK/TSK (Homo sapiens); test: Inhibition of Itk in EGF-stimulated human A549 cells assessed as reduction in PLCgamma1 phosphorylation at <=10 uM incubated for 20 mins by Western blotting analysis; type: cell-based
Mus musculus = test: Anti-inflammatory activity against ovalbumin induced Balb/c mouse bronchoalveolar lavage assessed as reduction in eosinophil infiltration administered twice daily for 3 days by microscopic analysis; type: functional, organism-based; details: dose 5-25 mg/kg, route sc, time 3.0 day

Chain of Tyrosine-protein kinase Lck (P06239 whole entry): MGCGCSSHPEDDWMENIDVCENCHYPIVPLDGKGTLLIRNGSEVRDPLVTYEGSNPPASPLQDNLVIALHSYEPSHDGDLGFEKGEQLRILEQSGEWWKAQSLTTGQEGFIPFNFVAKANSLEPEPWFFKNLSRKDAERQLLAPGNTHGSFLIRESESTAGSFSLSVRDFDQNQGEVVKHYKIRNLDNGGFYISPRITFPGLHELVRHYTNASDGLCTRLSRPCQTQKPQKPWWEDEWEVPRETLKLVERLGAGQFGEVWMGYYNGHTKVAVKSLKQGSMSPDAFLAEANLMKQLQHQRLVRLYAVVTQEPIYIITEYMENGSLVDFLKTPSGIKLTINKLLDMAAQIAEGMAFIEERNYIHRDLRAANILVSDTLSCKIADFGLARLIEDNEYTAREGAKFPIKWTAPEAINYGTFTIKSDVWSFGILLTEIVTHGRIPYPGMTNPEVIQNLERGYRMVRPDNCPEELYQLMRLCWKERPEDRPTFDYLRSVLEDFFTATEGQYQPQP
Chain of Glycogen synthase kinase-3 beta (P49841 whole entry): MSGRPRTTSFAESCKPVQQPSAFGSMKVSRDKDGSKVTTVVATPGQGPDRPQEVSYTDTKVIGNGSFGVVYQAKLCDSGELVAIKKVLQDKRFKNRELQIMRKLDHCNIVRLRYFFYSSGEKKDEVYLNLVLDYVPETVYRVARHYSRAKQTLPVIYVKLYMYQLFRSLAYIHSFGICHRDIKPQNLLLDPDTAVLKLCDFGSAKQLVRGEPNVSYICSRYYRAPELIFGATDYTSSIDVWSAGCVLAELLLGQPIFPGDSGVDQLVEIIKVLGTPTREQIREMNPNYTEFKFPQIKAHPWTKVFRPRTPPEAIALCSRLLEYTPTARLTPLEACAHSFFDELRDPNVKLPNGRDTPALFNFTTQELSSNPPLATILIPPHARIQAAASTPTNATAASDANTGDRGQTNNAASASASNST
Chain of Inhibitor of nuclear factor kappa-B kinase subunit beta (O14920 whole entry): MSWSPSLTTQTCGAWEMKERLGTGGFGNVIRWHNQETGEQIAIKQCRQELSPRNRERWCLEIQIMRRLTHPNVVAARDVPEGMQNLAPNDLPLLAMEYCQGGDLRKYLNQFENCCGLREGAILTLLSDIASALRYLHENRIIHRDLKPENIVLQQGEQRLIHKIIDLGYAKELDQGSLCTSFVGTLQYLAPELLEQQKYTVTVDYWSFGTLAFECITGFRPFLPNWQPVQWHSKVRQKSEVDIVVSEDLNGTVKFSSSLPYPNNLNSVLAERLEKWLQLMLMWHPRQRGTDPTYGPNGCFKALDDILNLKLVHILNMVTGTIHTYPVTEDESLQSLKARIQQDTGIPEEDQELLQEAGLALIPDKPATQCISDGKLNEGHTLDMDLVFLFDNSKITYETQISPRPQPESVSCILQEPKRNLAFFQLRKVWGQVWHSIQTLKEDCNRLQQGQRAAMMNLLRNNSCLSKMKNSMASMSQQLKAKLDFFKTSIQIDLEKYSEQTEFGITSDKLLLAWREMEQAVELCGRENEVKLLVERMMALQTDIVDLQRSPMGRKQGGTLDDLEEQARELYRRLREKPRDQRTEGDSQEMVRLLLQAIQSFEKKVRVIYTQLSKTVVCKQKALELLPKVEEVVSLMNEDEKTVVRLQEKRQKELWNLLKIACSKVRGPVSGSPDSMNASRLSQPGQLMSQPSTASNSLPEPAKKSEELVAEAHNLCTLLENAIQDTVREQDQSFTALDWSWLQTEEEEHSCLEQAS
Chain of Insulin receptor (P06213 28-758 limits assumed): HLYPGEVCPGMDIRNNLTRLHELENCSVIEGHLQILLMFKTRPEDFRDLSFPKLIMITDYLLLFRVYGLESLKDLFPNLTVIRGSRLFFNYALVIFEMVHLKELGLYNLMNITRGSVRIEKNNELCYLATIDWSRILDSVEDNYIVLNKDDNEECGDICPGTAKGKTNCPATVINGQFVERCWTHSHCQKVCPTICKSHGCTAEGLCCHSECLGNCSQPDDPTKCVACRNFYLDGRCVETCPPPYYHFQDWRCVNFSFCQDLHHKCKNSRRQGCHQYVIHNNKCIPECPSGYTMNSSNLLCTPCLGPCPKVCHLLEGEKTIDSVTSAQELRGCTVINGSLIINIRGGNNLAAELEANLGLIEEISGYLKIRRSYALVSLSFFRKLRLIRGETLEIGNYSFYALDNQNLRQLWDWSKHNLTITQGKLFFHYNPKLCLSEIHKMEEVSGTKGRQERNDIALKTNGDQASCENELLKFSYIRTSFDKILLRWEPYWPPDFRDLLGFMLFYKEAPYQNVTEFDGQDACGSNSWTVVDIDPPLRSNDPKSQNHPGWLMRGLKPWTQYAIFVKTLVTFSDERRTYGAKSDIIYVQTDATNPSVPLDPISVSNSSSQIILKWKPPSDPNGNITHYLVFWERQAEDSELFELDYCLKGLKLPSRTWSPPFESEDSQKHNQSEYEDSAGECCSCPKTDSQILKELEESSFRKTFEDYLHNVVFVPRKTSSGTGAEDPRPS
Chain of Insulin receptor (P06213 763-1382 limits assumed): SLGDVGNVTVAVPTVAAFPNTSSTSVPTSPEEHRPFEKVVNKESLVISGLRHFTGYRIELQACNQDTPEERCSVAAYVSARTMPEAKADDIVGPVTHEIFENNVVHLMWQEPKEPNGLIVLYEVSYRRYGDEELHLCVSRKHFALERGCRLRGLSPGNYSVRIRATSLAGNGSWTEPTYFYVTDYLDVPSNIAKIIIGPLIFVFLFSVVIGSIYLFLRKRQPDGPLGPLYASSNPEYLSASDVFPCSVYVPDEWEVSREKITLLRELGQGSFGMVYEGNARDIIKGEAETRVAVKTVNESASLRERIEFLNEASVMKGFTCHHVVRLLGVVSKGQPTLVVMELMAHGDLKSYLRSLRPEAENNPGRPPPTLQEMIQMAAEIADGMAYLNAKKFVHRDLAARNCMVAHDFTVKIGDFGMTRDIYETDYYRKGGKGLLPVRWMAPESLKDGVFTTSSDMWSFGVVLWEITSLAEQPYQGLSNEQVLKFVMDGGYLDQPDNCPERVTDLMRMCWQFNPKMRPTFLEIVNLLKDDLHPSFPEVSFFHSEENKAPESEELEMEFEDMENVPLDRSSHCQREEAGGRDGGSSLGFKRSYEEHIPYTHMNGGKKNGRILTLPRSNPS

IC50 [1] [µM] | IC50 [2] [µM] | IC50 (Insulin receptor) [µM] | inhibition [3] | inhibition [4] | IC50 [5] [µM] | IC50 [6] [µM] | inhibition [7] | IC50 [8] [µM] | IC50 [9] [µM] | IC50 [10] [µM] | inhibition [11] | SMILES | Activity (Mus musculus)
> 50 | > 50 | 4.4 | Active | Dose-Dependent Effect | > 50 | 27 | Active | 47.4 | > 50 | > 50 | Active | CC(=O)N1CCN(C(=O)c2cc(CSc3cnc(NC(=O)c4ccc(CNC(C)C(C)(C)C)cc4)s3)cc(C)c2C)CC1 (centres undefined) | –
> 50 | > 50 | 1.1 | Active | – | > 50 | 2.4 | Active | 36 | 11 | > 50 | Active | COc1cc(C)c(Sc2cnc(NC(=O)c3ccc(CNC(C)C(C)(C)C)cc3)s2)cc1C(=O)N1CCN(C(C)=O)CC1 (centres undefined) | Dose-Dependent Effect
